# Results taken from US5624903A, “Phosphoinositol-glycan-peptide with insulin-like action” (Heochst Aktiengesellschaft, priority 1991, dated 1997).
# Legend:
# pieces of diaphragm = assay: Glycogenesis in rat diaphragm pieces ([14C]glucose into glycogen); assay type: cell-based; details: 10 nM
# Protocol: (§1) Small pieces of tissue (5 mm diameter) were punched out of hemidiaphragms (Wistar rat, 60-70 g, no feed restriction) and washed several times.
# (§2) To inactivate the insulin receptor in rat diaphragm, the pieces of tissue are incubated in KRH buffer (0.1 mM glucose in the presence of 50 μg/ml tetradecanoylphorbol acetate) at 25° C., passing O2 through continuously, for 90 min. The pieces of tissue are subsequently washed twice with KRH buffer and used for the relevant tests.
# (§3) The experimental results obtained in the following experiments with tissue or cells in which the insulin receptor has been inactivated are indicated in parentheses in each case.
# This test determines the glycogen synthesis which can be stimulated by insulin in myocytes and which embraces glucose transport through the plasma membrane and the conversion of the glucose into glycogen including the functional insulin signal transmission cascade.
# Pieces of diaphragm are incubated with 50 μM D-[U-^14 C] glucose in KRH buffer in the presence or absence of insulin and PGP at 37° C. for 15 min. […] To determine the glycogen formed, the filters are transferred into TCA (5%), washed with ethanol and acetone and dried, and their radio-activity is determined by scintillation measurement ([^14 C]glycogen [dpm*10^-3 ]). […]
# glycogen synthase = assay: Glycogen synthase activity in rat diaphragm pieces; assay type: cell-based; details: 10 nM
# Protocol: as §1, §2, §3
# The test determines the conversion, which can be stimulated by insulin, of activated glucose (UDP-glucose) into glycogen (glycogen synthase activity) including a functional insulin signal transmission cascade. […]
# Pieces of diaphragm are incubated with D-glucose (0.1 mM) in the presence or absence of insulin and PGP at 37° C. for 30 min. […] The glycogen synthase activity is calculated as the fractional ratio between the I form of the enzyme (independent of glucose 6-phosphate, dephosphorylated, corresponds to the amount of active enzyme in the homogenate) and the D form of the enzyme (dependent on glucose 6-phosphate, phosphorylated, corresponds to the total amount of activatable enzyme in the homogenate) ([^14 C]glycogen [dpm*10^-3 ]).
# rat adipocytes [1] = assay: Lipogenesis in rat adipocytes ([3H]glucose into lipids); assay type: cell-based; details: for Lipogenesis ([3H]lipid): 10 nM
# Protocol: (§4) Adipose tissue from the epididymis (Wistar rat, 160-180 g, no feed restriction) is digested with collagenase, and the resulting isolated adipocytes are washed several times by flotation.
# (§5) To inactivate the insulin receptor in rat adipocytes, the cells are treated with 10 to 40 μg/ml trypsin. After addition of protease inhibitors, the cells are washed twice by flotation, and incubation is continued at 37° C. for 15 min. These cells are then used for the test of stimulation of lipogenesis by the phosphoinositol-glycanpeptides.
# as §3
# This test determines the conversion, which can be stimulated by insulin, of glucose into toluene-soluble products (triglycerides, phospholipids, fatty acids), which requires glucose transport and triglyceride (glycerol 3-P synthesis, esterification)/phospholipid/fatty acid synthesis including the insulin signal transmission cascade.
# Rat adipocytes are incubated in KRH buffer with D-[3-^3 H]glucose (0.2 mM or 1 mM final concentration) in the presence or absence of insulin and PGP at 37° C. for 90 min. The cells are disrupted by adding a toluene-soluble scintillation cocktail, and the lipids are separated from water-soluble products and the incubation medium. After phase separation, the radioactivity incorporated in lipids is determined by scintillation measurement directly without removing the aqueous phase ([^3 H]lipid [dpm*10^-3 ]).
# [2] = system: plasma membrane vesicles from rat adipocytes; assay: Intrinsic glucose transport activity in isolated plasma membrane vesicles; assay type: biochemical; details: 10 nM
# Protocol: as §4, §5
# The experimental results obtained in the following experiments with tissue or cells in which the insulin receptor has been inactivated are indicated in parentheses in each case. […]
# Isolated plasma membrane vesicles are incubated in the presence or absence of insulin/PGP at 25° C. for 30 min. The vesicles are subsequently incubated with 50 μM D-[3-^3 H]-glucose and L-[1-^14 C]glucose of the same specific radioactivity at 25° C. for 90 sec. […] Their radioactivity is determined by liquid scintillation measurement. The specific transport (D-[^3 H]glucose/-L-^14 C]glucose [dpm*10^-3 ]) is calculated as the difference between the [^3 H] radioactivity and [^14 C] radioactivity.
# rat adipocytes [3] = assay: Protein synthesis in rat adipocytes ([3H]leucine incorporation); assay type: cell-based; details: 10 nM
# Protocol: as §4, §5, §3
# The stimulation of protein synthesis differs from the metabolic effects of insulin measured in the previous determinations in that it belongs to the long-term actions of insulin (as growth hormone). The assay includes the insulin signal cascade.
# Rat adipocytes are incubated in primary culture in Dulbecco's modified essential medium (DMEM) deplete in leucine with 50 μM L-[^3 H]-leucine in the presence of insulin and PGP at 37° C. for 4 hours. […] The cell-associated radioactivity, determined by scintillation measurement, serves as a measure of the protein synthesis and the amino-acid transport through the plasma membrane ([^3 H]leucine [dpm*10^-4 ]).
# [4] = insulin receptor inactivated (value in parentheses)
substance,measurement,setting,value
Insulin: insulin stands for human insulin,Glycogenesis ([14C]glycogen),pieces of diaphragm; rat diaphragm pieces,8.4 dpm*10^-3
same,Glycogenesis ([14C]glycogen),"pieces of diaphragm; rat diaphragm, insulin receptor inactivated (value in parentheses)",4.1 dpm*10^-3
same,Glycogen synthase,glycogen synthase; [4],6.0 dpm*10^-3
same,Glycogen synthase,glycogen synthase; rat diaphragm pieces,10.1 dpm*10^-3
same,Lipogenesis ([3H]lipid),rat adipocytes [1]; rat adipocytes,11.2 dpm*10^-3
same,Lipogenesis ([3H]lipid),"rat adipocytes [1]; trypsin-treated adipocytes, insulin receptor inactivated (value in parentheses)",1.9 dpm*10^-3
same,Lipogenesis which can be stimulated by insulin (in words),"rat adipocytes [1]; control incubation, adipocytes treated with 10 to 40 μg/ml trypsin",only very little lipogenesis which can be stimulated by insulin
same,Intrinsic glucose transport (specific transport D-[3H]glucose/L-[14C]glucose),[2]; [4],2.3 dpm*10^-3
same,Intrinsic glucose transport (specific transport D-[3H]glucose/L-[14C]glucose),[2]; plasma membrane vesicles,2.5 dpm*10^-3
same,Protein synthesis ([3H]leucine),rat adipocytes [3]; [4],4.0 dpm*10^-4
same,Protein synthesis ([3H]leucine),"rat adipocytes [3]; rat adipocytes, 4 hours",10.1 dpm*10^-4
